Data set [1] concerns cholesterol biosynthesis. The data set is described as follows: Inhibition of cholesterol biosynthesis. The class given is biochemical.
Data set [2] addresses T1, 3-hydroxy-3-methylglutaryl-CoA reductase (Rattus norvegicus, UniProt P51639).
T1 construct: Employed as an enzyme microsome of rat liver; from tissue; host or cells: rat liver microsomes
T1 sequence (P51639 1-887): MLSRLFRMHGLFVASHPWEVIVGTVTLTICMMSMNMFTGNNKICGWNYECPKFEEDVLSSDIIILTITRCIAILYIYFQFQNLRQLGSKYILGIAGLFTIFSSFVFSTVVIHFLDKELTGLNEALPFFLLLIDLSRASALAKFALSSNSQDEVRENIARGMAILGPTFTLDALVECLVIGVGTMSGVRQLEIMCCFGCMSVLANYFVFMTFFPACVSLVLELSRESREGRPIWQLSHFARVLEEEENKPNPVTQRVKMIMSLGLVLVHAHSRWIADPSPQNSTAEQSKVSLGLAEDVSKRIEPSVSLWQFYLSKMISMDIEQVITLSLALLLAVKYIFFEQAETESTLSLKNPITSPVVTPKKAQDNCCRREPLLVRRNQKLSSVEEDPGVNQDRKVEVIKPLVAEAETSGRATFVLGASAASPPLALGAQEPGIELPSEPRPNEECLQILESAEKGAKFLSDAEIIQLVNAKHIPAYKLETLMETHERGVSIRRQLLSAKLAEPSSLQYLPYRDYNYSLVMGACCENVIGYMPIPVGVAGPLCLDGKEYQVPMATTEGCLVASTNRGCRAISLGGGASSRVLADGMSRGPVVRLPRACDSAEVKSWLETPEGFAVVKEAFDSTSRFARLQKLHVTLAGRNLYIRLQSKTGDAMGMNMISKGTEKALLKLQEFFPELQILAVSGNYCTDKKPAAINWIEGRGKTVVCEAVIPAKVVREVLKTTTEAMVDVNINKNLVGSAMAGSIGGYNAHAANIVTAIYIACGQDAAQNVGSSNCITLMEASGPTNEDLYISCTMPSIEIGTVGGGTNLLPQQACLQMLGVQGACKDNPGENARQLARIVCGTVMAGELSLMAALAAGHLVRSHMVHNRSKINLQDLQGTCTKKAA
The experiment in a line: Inhibition of 3-hydroxy-3-methylglutaryl-CoA reductase. The conditions noted are these: enzyme: microsome of rat liver; read-out: Concentration to inhibit 50% of 3-hydroxy-3-methylglutaryl-CoA reductase (converted). The data set is classed as biochemical. The source says:
Inhibition activity of cholesterol biosynthesis [determined according to the method disclosed in J. Biol. Chem., 234, 2835 (1959)] and inhibition activity on 3-hydroxy-3-methylglutaryl-CoA reductase [determined according to the method disclosed in Anal. Biochem., 31, 383 (1969)] of these compounds are summarized in Table 1.
*Employed as an enzyme microsome of rat liver.

Data set [3] concerns total serum cholesterol in beagle dogs. The experiment in a line: Lowering activity of blood cholesterol in beagle dogs. The class given is in vivo, beagle dog. The conditions noted are these: beagle dogs, oral twice per day, 5 days; for inhibition in vivo at 25 mg/kg/day / inhibition in vivo at 100 mg/kg/day: Canis lupus familiaris, po, 120 h, read-out: Lowering rate of total serum cholesterol. An excerpt: The test was to orally administer an encapsulated test sample twice per day, in the morning (9 o'clock) and evening (16 o'clock), for continuous 5 days, collect a blood sample in the morning after 5 days and determine a total cholesterol level in serum by a conventional method.

Data set [4] has as its system serum cholesterol in rats. The data set is described as follows: Lowering activity of blood cholesterol in rats. The data set is classed as in vivo, rat. The conditions noted are these: rats, oral, after 18 hours; for inhibition in vivo at 5 mg/kg / inhibition in vivo at 20 mg/kg: Rattus norvegicus, po, 18 h, read-out: Lowering rate of serum cholesterol. The method, then: A lowering activity of blood cholesterol in rats was assayed on rats. The test was to orally administer a test sample suspended in water, collect a blood sample after 18 hours and determine a cholesterol level in serum by a conventional method.

The test system of data set [5] is Mouse. The experiment in a line: Acute toxicity in mouse. The conditions noted are these: aqueous suspension. The method, then:
(§1) Acute toxicity of ML-236B carboxylic acid derivatives (I) was determined in oral and intraperitoneal administration (both as an aqueous suspension).

The subject of data set [6] is Rat. The data set is described as follows: Acute toxicity in rat. The conditions noted are these: aqueous suspension. The method, then:
as §1

Data set [7] in a line: Acute toxicity in mouse. The conditions noted are these: in vivo, ip, LD50, mouse, aqueous suspension. The method, then:
as §1

Data set [8] can be described thus: Acute toxicity in rat. The conditions noted are these: in vivo, LD50, rat, aqueous suspension. The method, then:
as §1

Setting [9] is: p.o., listed as ML-236B Na salt.

For orientation: LD50 means the dose expected to kill half of the subjects tested.

Where a name gives a salt, the structure may show the parent alone.

As for `CCC(C)C(=O)OC1CCC=C2C=CC(C)C(CCC(O)CC(O)CC(=O)O)C21` (stereo not shown) [Arginine, Arginine salt of ML-236B carboxylic acid], the “Concentration to inhibit 50% of cholesterol biosynthesis” value in data set [1] was 0.007 µg/mL. Further, the IC50 in data set [2] is 441 nM. Further, the “Lowering rate of total serum cholesterol” value in data set [3] (25 mg/kg/day) is 26%; in data set [3] (100 mg/kg/day), 45%. For the same molecule, the “Lowering rate of serum cholesterol” value in data set [4] (5 mg/kg, 5 mg/kg) came out at 19.6%; in data set [4] (20 mg/kg, 20 mg/kg), 24.1%. The LD50 is given as over 500 mg/kg in data set [5] (i.p.), > 5,000 mg/kg in data set [5] (p.o.), over 500 mg/kg in data set [6] (i.p.) and > 5,000 mg/kg in data set [6] (p.o.).

As for `CCC(C)C(=O)OC1CCC=C2C=CC(C)C(CCC(O)CC(O)CC(=O)O)C21` (stereo not shown) [Al, Aluminum ML-236B carboxylate], the “Concentration to inhibit 50% of cholesterol biosynthesis” value in data set [1] amounted to 0.006 µg/mL. Also, the “Lowering rate of total serum cholesterol” value in data set [3] (25 mg/kg/day) stood at 26%; in data set [3] (100 mg/kg/day), 41%. Besides, the “Lowering rate of serum cholesterol” value worked out at 18.3% in data set [4] (5 mg/kg, 5 mg/kg) and 22.1% in data set [4] (20 mg/kg, 20 mg/kg). The LD50 in data set [5] (i.p.) is recorded as over 500 mg/kg; in data set [5] (p.o., listed as Al salt), > 2,000 mg/kg; in data set [6] (i.p.) it was over 500 mg/kg; in data set [6] (p.o., listed as Al salt), > 2,000 mg/kg.

In the case of `CCC(C)C(=O)OC1CCC=C2C=CC(C)C(CCC(O)CC(O)CC(=O)O)C21` (stereo not shown) [Lysine, Lysine salt of ML-236B carboxylic acid], the “Concentration to inhibit 50% of cholesterol biosynthesis” value in data set [1] was 0.006 µg/mL. The “Lowering rate of total serum cholesterol” value was 24% in data set [3] (25 mg/kg/day) and 44% in data set [3] (100 mg/kg/day). Moreover, the “Lowering rate of serum cholesterol” value in data set [4] (5 mg/kg, 5 mg/kg) was determined as 16.9%; in data set [4] (20 mg/kg, 20 mg/kg), 23.8%. For the same molecule, the LD50 in data set [5] (i.p.) was over 500 mg/kg; in data set [5] (p.o.) it was > 5,000 mg/kg; in data set [6] (i.p.), over 500 mg/kg; in data set [6] (p.o.), > 5,000 mg/kg.

In the case of `CCC(C)C(=O)OC1CCC=C2C=CC(C)C(CCC(O)CC(O)CC(=O)O)C21` (stereo not shown) [Na, Sodium ML-236B carboxylate], in data set [1], the “Concentration to inhibit 50% of cholesterol biosynthesis” value stood at 0.006 µg/mL. Moreover, the IC50 in data set [2] was 392 nM. Further, the inhibition in vivo at 25 mg/kg/day in data set [3] (25 mg/kg/day) was determined as 24%. Moreover, the inhibition in vivo at 100 mg/kg/day in data set [3] (100 mg/kg/day) worked out at 47%. In data set [4] (5 mg/kg), the inhibition in vivo at 5 mg/kg turned out to be 20.6%. In addition, in data set [4] (20 mg/kg), the inhibition in vivo at 20 mg/kg worked out at 23.1%. Also, the LD50 was over 500 mg/kg in data set [7], > 2,000 mg/kg in data set [5] (setting [9]), over 500 mg/kg in data set [8] (ip) and > 2,000 mg/kg in data set [6] (setting [9]).

In the case of `CCC(C)C(=O)OC1CCC=C2C=CC(C)C(CCC(O)CC(O)CC(=O)O)C21` (stereo not shown) [Ca, Calcium ML-236B carboxylate], the “Concentration to inhibit 50% of cholesterol biosynthesis” value in data set [1] was found to be 0.006 µg/mL. The entries for the “Lowering rate of total serum cholesterol” value in data set [3] (25 mg/kg/day) and in data set [3] (100 mg/kg/day) were 28% and 44%, respectively. In addition, the “Lowering rate of serum cholesterol” value in data set [4] (5 mg/kg, 5 mg/kg) turned out to be 16.5%; in data set [4] (20 mg/kg, 20 mg/kg) it was 20.9%. Further, the LD50 in data set [5] (i.p.) is over 500 mg/kg; in data set [5] (p.o., listed as Ca salt), > 2,000 mg/kg; in data set [6] (i.p.), over 500 mg/kg; in data set [6] (p.o., listed as Ca salt), > 2,000 mg/kg.

On to `CCC(C)C(=O)OC1CCC=C2C=CC(C)C(CCC(O)CC(O)CC(=O)OCc3ccc(Cl)cc3)C21` (stereo not shown) [4-chlorobenzyl, 4-Chlorobenzyl ML-236B carboxylate], for which the “Concentration to inhibit 50% of cholesterol biosynthesis” value in data set [1] is 0.01 µg/mL. Also, the IC50 in data set [2] was 375 nM. For the same molecule, the inhibition in vivo at 25 mg/kg/day in data set [3] (25 mg/kg/day) is 20%. Besides, the inhibition in vivo at 100 mg/kg/day in data set [3] (100 mg/kg/day) amounted to 36%. Further, in data set [4] (5 mg/kg), the inhibition in vivo at 5 mg/kg was found to be 15%. Also, the inhibition in vivo at 20 mg/kg in data set [4] (20 mg/kg) was found to be 21%. The LD50 is over 500 mg/kg in data set [7] and over 2000 mg/kg in data set [8] (po).

Source of the values: patent publication US4137322A, “ML-236B carboxylic acid derivatives and their use as antihyperlipemic agents” (Sankyo Company Limited, priority 1976, dated 1979).
